Values after ≈ are worked out from the molar mass of the structure shown.

Holding throughout (assay type): functional
Experiment [1] concerns Chryseobacterium indologenes. Description: Antimicrobial activity against Chryseobacterium indologenes 597 expressing metallo-beta-lactamase IND-6 after 18 hrs by broth microdilution method in presence of beta-lactamase inhibitor clavulanic acid. As to conditions: Chryseobacterium indologenes, 597, 18 h. In general terms: Broth dilution looks for growth in wells or tubes with falling amounts of substance.

The subject of experiment [2] is Chryseobacterium indologenes. The experiment is described as follows: Antimicrobial activity against Chryseobacterium indologenes 597 expressing metallo-beta-lactamase IND-6 after 18 hrs by broth microdilution method. As to conditions: Chryseobacterium indologenes, 597, 18 h.
In experiment [3] the test system is Escherichia coli. The experiment is described as follows: Antimicrobial activity against Escherichia coli DH5alpha harboring metallo-beta-lactamase IND-6 after 18 hrs by broth microdilution method. The settings on record: DH5[alpha].
In experiment [4] the test system is Escherichia coli. Description: Antimicrobial activity against Escherichia coli DH5alpha harboring plasmid pBC-SK after 18 hrs by broth microdilution method. As to conditions: DH5[alpha].
Experiment [5] relates to Chryseobacterium indologenes. Description: Antimicrobial activity against Chryseobacterium indologenes 597 expressing metallo-beta-lactamase IND-6 after 18 hrs by broth microdilution method in presence of beta-lactamase inhibitor Tazobactam. The settings on record: Chryseobacterium indologenes, 597, 18 h.

What is called MIC is the lowest concentration found to suppress growth. With `CC1(C)S[C@@H]2[C@H](NC(=O)[C@H](N)c3ccc(O)cc3)C(=O)N2[C@H]1C(=O)O` [AMOXICILLIN], in experiment [1], the MIC was no less than 64 µg/mL.
As to `CC1(C)S[C@@H]2[C@H](NC(=O)[C@H](N)c3ccccc3)C(=O)N2[C@H]1C(=O)O` [AMPICILLIN], the MIC is no less than 64 µg/mL in experiment [2] and 32 µg/mL (≈ 91.6 µM) against Escherichia coli [3].
Consider `C[C@H]1[C@H](NC(=O)/C(=N\OC(C)(C)C(=O)O)c2csc(N)n2)C(=O)N1S(=O)(=O)O` [AZTREONAM], for which the MIC with Escherichia coli [4] and in the experiment with Escherichia coli [3] was 0.25 µg/mL (≈ 0.574 µM) in each case.
`CO/N=C(\C(=O)N[C@@H]1C(=O)N2C(C(=O)[O-])=C(C[N+]3(C)CCCC3)CS[C@H]12)c1csc(N)n1` [CEFEPIME]: the figures for the minimal inhibitory concentration (MIC) (with Escherichia coli [4]; in experiment [2]; with Escherichia coli [3]) were 0.03 µg/mL (≈ 0.0624 µM), 1 µg/mL (≈ 2.08 µM) and 0.12 µg/mL (≈ 0.25 µM), respectively.
`CO/N=C(\C(=O)N[C@@H]1C(=O)N2C(C(=O)O)=C(COC(C)=O)CS[C@H]12)c1csc(N)n1` [CEFOTAXIME]: the minimum inhibitory concentration (MIC) against Escherichia coli [4] came to 0.12 µg/mL (≈ 0.263 µM); in experiment [2], 32 µg/mL (≈ 70.3 µM); in the experiment on Escherichia coli [3], 0.5 µg/mL (≈ 1.1 µM).
The corresponding values for `CO[C@@]1(NC(=O)Cc2cccs2)C(=O)N2C(C(=O)O)=C(COC(N)=O)CS[C@@H]21` [CEFOXITIN] are 2 µg/mL (≈ 4.68 µM), 16 µg/mL (≈ 37.4 µM) and 16 µg/mL (≈ 37.4 µM).
The corresponding values for `CC(C)(O/N=C(\C(=O)N[C@@H]1C(=O)N2C(C(=O)[O-])=C(C[n+]3ccccc3)CS[C@H]12)c1csc(N)n1)C(=O)O` [CEFTAZIDIME] are 0.12 µg/mL (≈ 0.22 µM), 8 µg/mL (≈ 14.6 µM) and 1 µg/mL (≈ 1.83 µM).
On to `CO/N=C(\C(=O)N[C@@H]1C(=O)N2C(C(=O)O)=C(CSc3nc(=O)c(O)nn3C)CS[C@H]12)c1csc(N)n1` [CEFTRIAXONE], for which the MIC against Escherichia coli [4] was determined as 0.03 µg/mL (≈ 0.0541 µM); with Escherichia coli [3], 0.12 µg/mL (≈ 0.216 µM).
`CO/N=C(\C(=O)N[C@@H]1C(=O)N2C(C(=O)O)=C(COC(N)=O)CS[C@H]12)c1ccco1` [CEFUROXIME]: the MIC against Escherichia coli [4] was 2 µg/mL (≈ 4.71 µM); in experiment [2], no less than 64 µg/mL; against Escherichia coli [3], 32 µg/mL (≈ 75.4 µM).
The corresponding values for `CC(=O)OCC1=C(C(=O)O)N2C(=O)[C@@H](NC(=O)Cc3cccs3)[C@H]2SC1` [CEPHALOTHIN] are 4 µg/mL (≈ 10.1 µM), no less than 64 µg/mL and 64 µg/mL (≈ 161 µM).
As to `C[C@@H](O)[C@H]1C(=O)N2C(C(=O)O)=C(SCCNC=N)C[C@H]12` [IMIPENEM ANHYDROUS], the MIC is no less than 64 µg/mL in experiment [2] and 1 µg/mL (≈ 3.34 µM) in the experiment on Escherichia coli [3].
Turning to `C[C@@H](O)[C@H]1C(=O)N2C(C(=O)O)=C(S[C@@H]3CN[C@H](C(=O)N(C)C)C3)[C@H](C)[C@H]12` [MEROPENEM], the MIC against Escherichia coli [4] came to 0.03 µg/mL (≈ 0.0782 µM); in experiment [2] it was 8 µg/mL (≈ 20.9 µM); with Escherichia coli [3], 0.12 µg/mL (≈ 0.313 µM).
Regarding `CCN1CCN(C(=O)N[C@@H](C(=O)N[C@@H]2C(=O)N3[C@@H]2SC(C)(C)[C@@H]3C(=O)O)c2ccccc2)C(=O)C1=O` [PIPERACILLIN], the MIC in experiment [5] came out at 4 µg/mL; in experiment [2], 4 µg/mL (≈ 7.73 µM).
In the case of `CO[C@@]1(NC(=O)C(C(=O)O)c2ccsc2)C(=O)N2[C@@H](C(=O)O)C(C)(C)S[C@@H]21` (stereo partly specified) [TEMOCILLIN], the results for the MIC in the experiment on Escherichia coli [4] and in the experiment on Escherichia coli [3] were 4 µg/mL (≈ 9.65 µM) and 16 µg/mL (≈ 38.6 µM), respectively.
Turning to `CC1(C)S[C@@H]2[C@H](NC(=O)[C@H](C(=O)O)c3ccsc3)C(=O)N2[C@H]1C(=O)O` [TICARCILLIN], the MIC in the experiment on Escherichia coli [4] was determined as 4 µg/mL (≈ 10.4 µM); with Escherichia coli [3] it was 256 µg/mL (≈ 666 µM).

The values above are taken from ChEMBL document CHEMBL1649237, “IND-6, a highly divergent IND-type metallo-beta-lactamase from Chryseobacterium indologenes strain 597 isolated in Burkina Faso” (2009).
